Laboratory results: patent publication US20080032889A1, “6-(2-Fluorophenyl)-Triazolopyrimidines, Method For The Production Thereof, Use Thereof For Controlling Harmful Fungi, And Agents Containing The Same” (BASF AKTIENGESELLSCHAFT, priority 2004, published 2008)

Test system: Botrytis cinerea
Assay: Activity against gray mold caused by Botrytis cinerea on bell pepper plants, protective application
Format: in vivo
Conditions: 200 ppm, protective spray, bell pepper "California Wonder", after about 3 days; untreated plants 100% infected
Protocol: Comparative Experiment 1—Activity Against Gray Mold Caused by Botrytis cinerea, Protective Application Potted bell pepper plants of the cultivar “California Wonder” were sprayed to runoff point with an aqueous suspension having the active compound concentration stated below. The suspension or emulsion had been prepared by dilution with water from a stock solution comprising 5% of active compound, 94% of cyclohexanone and 1% of emulsifier (Tween 20). 2-5 hours after the spray coating had dried on, the plants were dusted with spores of gray mold (Botrytis cinerea). The test plants were then incubated in a humid chamber at temperatures between 20 and 22° C. and at 100% relative atmospheric humidity. After about 3 days, the extent of the pathogen development was determined visually in % infection of the entire leaf area.

## CC(C)Nc1c(-c2ccccc2F)c(Cl)nc2ncnn12 [compound A]
  infection of the entire leaf area: 90%
